Data taken from patent US6686355B2, “Biphenyl sulfonamides useful as matrix metalloproteinase inhibitors” (Warner-Lambert Company, priority 2001, dated 2004).

Legend:
Type in all cases: biochemical
[1] = target: T1, MMP-7FL (full length matrilysin) (Homo sapiens, UniProt P09237); experiment: Thiopeptolide hydrolysis assay, MMP-7FL; details: thiopeptolide substrate, HEPES pH 7.0, 22° C.
T1 sequence (P09237 95-267): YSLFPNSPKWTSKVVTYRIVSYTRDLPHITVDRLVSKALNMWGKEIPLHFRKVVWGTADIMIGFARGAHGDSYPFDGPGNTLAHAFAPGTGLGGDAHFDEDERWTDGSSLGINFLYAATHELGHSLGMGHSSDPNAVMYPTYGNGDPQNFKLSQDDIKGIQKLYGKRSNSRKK
From the text: (§1) The assays measure the amount by which a test compound reduces the hydrolysis of a thiopeptolide substrate catalyzed by a matrix metalloproteinase enzyme. Such assays are described in detail by Ye et al., in Biochemistry, 1992;31(45):11231-11235, which is incorporated herein by reference.
(§2) Thiopeptolide substrates show virtually no decomposition or hydrolysis at or below neutral pH in the absence of a matrix metalloproteinase enzyme. A typical thiopeptolide substrate commonly utilized for assays is Ac-Pro-Leu-Gly-thioester-Leu-Leu-Gly-OEt. A 100 μL assay mixture will contain 50 mM of N-2-hydroxyethylpiperazine-N′-2-ethanesulfonic acid buffer (“HEPES”) at pH 7.0, 10 mM CaCl2, 100 μM thiopeptolide substrate, and 1 mM 5,5″-dithio-bis-(2-nitro-benzoic acid) (DTNB). The thiopeptolide substrate concentration may be varied from, for example, 10 to 800 μM to obtain Km and Kcat values. The change in absorbance at 405 nm is monitored on a Thermo Max microplate reader (Molecular Devices, Menlo Park, Calif.) at room temperature (22° C.). The calculation of the amount of hydrolysis of the thiopeptolide substrate is based on E412=13600 M^−1 cm^−1 for the DTNB-derived product 3-carboxy4-nitrothiophenoxide. Assays are carried out with and without matrix metalloproteinase inhibitor compounds, and the amount of hydrolysis is compared for a determination of inhibitory activity of the test compounds.
(§3) Several representative compounds have been evaluated for their ability to inhibit various matrix metalloproteinase enzymes. In Table I, MMP-1FL refers to full length interstitial collagenase; MMP-2FL refers to full length Gelatinase A; MMP-3CD refers to the catalytic domain of stromelysin-1; MMP-7FL refers to full length matrilysin; MMP-9FL refers to full length Gelatinase B; MMP-13CD refers to the catalytic domain of collagenase 3; and MMP-14CD refers to the catalytic domain of MMP-14. Test compounds were evaluated at various concentrations in order to determine their respective IC50 values, the micromolar concentration of compound required to cause a 50% inhibition of the catalytic activity of the respective enzyme.

MMP-12CD = target: T2, MMP-12CD (Homo sapiens, UniProt P39900); experiment: Thiopeptolide hydrolysis assay, MMP-12CD; details: thiopeptolide substrate, HEPES pH 7.0, 22° C.
T2 construct: MMP-12CD
T2 sequence (P39900 106-263 limits assumed): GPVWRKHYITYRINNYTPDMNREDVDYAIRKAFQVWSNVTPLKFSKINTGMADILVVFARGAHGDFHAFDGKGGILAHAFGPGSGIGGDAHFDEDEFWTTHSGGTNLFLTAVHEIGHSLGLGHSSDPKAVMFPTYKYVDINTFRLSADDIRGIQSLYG
From the text: as §1, §2, §3

[2] = target: MMP-3CD (catalytic domain of stromelysin-1) (Homo sapiens, UniProt P08254); experiment: Thiopeptolide hydrolysis assay, MMP-3CD; details: thiopeptolide substrate, MES pH 6.0
Chain of MMP-3CD (catalytic domain of stromelysin-1) (P08254 100-272 limits assumed): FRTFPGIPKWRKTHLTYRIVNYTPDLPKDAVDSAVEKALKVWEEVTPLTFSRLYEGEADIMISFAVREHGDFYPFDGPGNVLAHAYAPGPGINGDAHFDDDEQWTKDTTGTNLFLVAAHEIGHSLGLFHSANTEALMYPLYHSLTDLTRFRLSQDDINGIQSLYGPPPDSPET
From the text: as §1, §2, §3
It should be appreciated that the assay buffer used with MMP-3CD was 50 mM of 2-morpholinoethanesulfonic acid monohydrate (“MES”) at pH 6.0 rather than the HEPES buffer at pH 7.0 described above.

[3] = target: T3, MMP-1FL (full length interstitial collagenase) (Homo sapiens, UniProt P03956); experiment: Thiopeptolide hydrolysis assay, MMP-1FL; details: thiopeptolide substrate, HEPES pH 7.0, 22° C.
T3 sequence (P03956 100-469): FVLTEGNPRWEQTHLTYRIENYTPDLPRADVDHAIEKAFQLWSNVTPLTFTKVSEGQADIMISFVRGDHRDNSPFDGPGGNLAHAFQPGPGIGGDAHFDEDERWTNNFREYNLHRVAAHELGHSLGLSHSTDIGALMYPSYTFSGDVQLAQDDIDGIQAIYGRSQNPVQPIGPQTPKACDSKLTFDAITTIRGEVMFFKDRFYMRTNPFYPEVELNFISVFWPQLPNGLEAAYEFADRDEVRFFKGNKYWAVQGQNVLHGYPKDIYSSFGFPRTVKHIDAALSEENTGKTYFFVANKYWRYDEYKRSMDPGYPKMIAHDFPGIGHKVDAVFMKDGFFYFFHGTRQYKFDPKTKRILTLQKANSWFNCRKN
From the text: as §1, §2, §3

[4] = target: MMP-9FL (full length Gelatinase B) (Homo sapiens, UniProt P14780); experiment: Thiopeptolide hydrolysis assay, MMP-9FL; details: thiopeptolide substrate, HEPES pH 7.0, 22° C.
Chain of MMP-9FL (full length Gelatinase B) (P14780 94-707, species assumed): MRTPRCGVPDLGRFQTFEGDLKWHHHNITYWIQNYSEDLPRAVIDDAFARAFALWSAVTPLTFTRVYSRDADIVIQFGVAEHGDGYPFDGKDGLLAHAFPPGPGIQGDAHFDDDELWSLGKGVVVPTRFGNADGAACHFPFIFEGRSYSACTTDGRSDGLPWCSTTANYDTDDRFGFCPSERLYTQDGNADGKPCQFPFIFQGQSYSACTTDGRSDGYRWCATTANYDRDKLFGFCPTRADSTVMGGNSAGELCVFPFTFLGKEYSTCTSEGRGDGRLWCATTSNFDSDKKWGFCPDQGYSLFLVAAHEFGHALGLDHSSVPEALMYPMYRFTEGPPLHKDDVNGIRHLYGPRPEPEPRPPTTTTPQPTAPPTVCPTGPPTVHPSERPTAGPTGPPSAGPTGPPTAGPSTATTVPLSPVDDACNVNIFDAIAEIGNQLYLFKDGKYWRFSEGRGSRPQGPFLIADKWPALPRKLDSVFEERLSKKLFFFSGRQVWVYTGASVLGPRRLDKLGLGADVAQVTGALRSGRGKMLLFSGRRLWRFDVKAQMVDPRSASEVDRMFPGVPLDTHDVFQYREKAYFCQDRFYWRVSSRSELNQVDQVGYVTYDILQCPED
From the text: as §1, §2, §3

[5] = target: MMP-14CD (catalytic domain of MMP-14) (Homo sapiens, UniProt P50281); experiment: Thiopeptolide hydrolysis assay, MMP-14CD; details: thiopeptolide substrate, HEPES pH 7.0, 22° C.
From the text: as §1, §2, §3

[6] = target: T4, MMP-2FL (full length Gelatinase A) (Homo sapiens, UniProt P08253); experiment: Thiopeptolide hydrolysis assay, MMP-2FL; details: thiopeptolide substrate, HEPES pH 7.0, 22° C.
T4 sequence (P08253 110-660): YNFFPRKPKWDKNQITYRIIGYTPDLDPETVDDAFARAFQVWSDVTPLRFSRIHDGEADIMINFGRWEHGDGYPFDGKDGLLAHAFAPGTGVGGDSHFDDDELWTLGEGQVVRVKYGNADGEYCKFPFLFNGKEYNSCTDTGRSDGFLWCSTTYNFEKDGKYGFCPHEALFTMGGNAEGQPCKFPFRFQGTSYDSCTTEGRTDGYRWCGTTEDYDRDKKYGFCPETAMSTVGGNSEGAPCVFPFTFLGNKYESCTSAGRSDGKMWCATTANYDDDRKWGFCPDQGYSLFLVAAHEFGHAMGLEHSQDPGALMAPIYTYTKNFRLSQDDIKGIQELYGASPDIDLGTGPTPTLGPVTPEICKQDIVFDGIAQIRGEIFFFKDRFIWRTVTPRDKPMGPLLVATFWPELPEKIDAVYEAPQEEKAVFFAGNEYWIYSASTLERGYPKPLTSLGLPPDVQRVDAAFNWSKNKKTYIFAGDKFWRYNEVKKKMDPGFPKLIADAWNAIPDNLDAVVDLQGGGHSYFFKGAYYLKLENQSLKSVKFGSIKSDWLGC
From the text: as §1, §2, §3

[7] = target: MMP-13CD (catalytic domain of collagenase 3) (Homo sapiens, UniProt P45452); experiment: Thiopeptolide hydrolysis assay, MMP-13CD; details: thiopeptolide substrate, HEPES pH 7.0, 22° C.
From the text: as §1, §2, §3

Row | Molecule | IC50 [1] [µM] | IC50 (MMP-12CD) [µM] | IC50 [2] [µM] | IC50 [3] [µM] | IC50 [4] [µM] | IC50 [5] [µM] | IC50 [6] [µM] | IC50 [7] [µM]
1 | CC1(C)SCCN(S(=O)(=O)c2ccc(-c3ccc(-c4ccccc4)c(F)c3)cc2)[C@H]1C(=O)O [Example 53, (S)-4-(2′-Fluoro-[1,1′;4′,1″]terphenyl-4″-sulfonyl)-2,2-dimethyl-thiomorpholine-3-carboxylic acid] | 1.85 | 0.001 | 0.0072 | 3.15 | 0.017 | 0.145 | 0.0043 | 0.0086
2 | CC1(C)SCCN(S(=O)(=O)c2ccc(-c3ccc4ccccc4c3)cc2)[C@H]1C(=O)O [Example 36, (S)-2,2-Dimethyl-4-(4-naphthalen-2-yl-benzenesulfonyl)-thiomorpholine-3-carboxylic acid] | 31.7 | 0.00113 | 0.0104 | 10.8 | 0.13 | 0.0567 | 0.00635 | 0.0108
3 | CC1(C)SCCN(S(=O)(=O)c2ccc(-c3ccc(-c4ccccc4)cc3)cc2)[C@H]1C(=O)O [Example 38, (S)-2,2-Dimethyl-4-([1,1′;4′,1″]terphenyl-4-sulfonyl)-thiomorpholine-3-carboxylic acid] | 2.67 | 0.001 | 0.00295 | 1.17 | 0.0032 | 0.0343 | 0.00135 | 0.00145
4 | CC1(C)SCCN(S(=O)(=O)c2ccc(-c3ccc(F)cc3F)cc2)[C@H]1C(=O)O [Example 39, (S)-4-(2′,4′-Difluoro-biphenyl-4-sulfonyl)-2,2-dimethyl-thiomorpholine-3-carboxylic acid] | 25 | 0.013 | 0.0285 | 3.25 | 2.78 | 0.67 | 0.115 | 0.16
5 | CC1(C)SCCN(S(=O)(=O)c2ccc(-c3ccc(F)c(F)c3)cc2)[C@H]1C(=O)O [Example 41, (S)-4-(3′,4′-Difluoro-biphenyl-4-sulfonyl)-2,2-dimethyl-thiomorpholine-3-carboxylic acid] | 92.5 | 0.0285 | 0.054 | 9.7 | 6.65 | 0.615 | 0.23 | 0.3
6 | CCOc1ccc(-c2ccc(S(=O)(=O)N3CCSC(C)(C)[C@@H]3C(=O)O)cc2)cc1 [Example 43, (S)-4-(4′-Ethoxy-biphenyl-4-sulfonyl)-2,2-dimethyl-thiomorpholine-3-carboxylic acid] | 70 | 0.001 | 0.0038 | 7.95 | 0.018 | 0.16 | 0.0023 | 0.0033
7 | (S)-2,2-Dimethyl-4-(4-methylsulfanyl-biphenyl-4-sulfonyl)-thiomorpholine-3-carboxylic acid [Example 37] | 6.87 | 0.001 | 0.00475 | 2.03 | 0.069 | 0.036 | 0.0025 | 0.00305
8 | CCc1ccc(-c2ccc(S(=O)(=O)N3CCSC(C)(C)[C@@H]3C(=O)O)cc2)cc1 [Example 47, (S)-4-(4′-Ethyl-biphenyl-4-sulfonyl)-2,2-dimethyl-thiomorpholine-3-carboxylic acid] | 9 | 0.00125 | 0.0074 | 5.4 | 0.14 | – | 0.0061 | 0.01
9 | CC1(C)SCCN(S(=O)(=O)c2ccc(-c3ccc(Oc4ccccc4)cc3)cc2)[C@H]1C(=O)O [Example 40, (S)-2,2-Dimethyl-4-(4′-phenoxy-biphenyl-4-sulfonyl)-thiomorpholine-3-carboxylic acid] | 13 | 0.004 | 0.0094 | – | 2.2 | 1.5 | 0.17 | 0.1
